This is an account of results in patent publication US20240067632A1, “WEE1 Degrading Compounds and Uses Thereof” (Bristol-Myers Squibb Company, priority 2022, published 2024).

Where two headings read alike, the source gives them in different places.

The subject of one assay is MKN45 cells. Description: MKN45 cell proliferation assay (Cell-Titer-Glo, 120 h). The note with it: for EC50: Homo sapiens, MKN-45, 120 h, Cell-Titer-Glo, read-out: MKN45 Cell Prolif. 120 hr (EC50); for MKN45 Cell Prolif. 120 hr (Ymin-Obs): minimal percent of DMSO control observed in the concentrations tested. In kind it is cell-based. In outline:
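Cells seeded at 400/well onto pre-printed 10-point half-log dilutions (top 1 or 10 uM, 0.1% DMSO final), in triplicate, and grown 120 h at 37 C. Viability by Cell-Titer-Glo luminescence, blank-subtracted and normalised to DMSO; EC50 from four-parameter logistic fit, with observed minimal % of control recorded as Ymin-obs.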

In the next assay the target is T1, WEE1 (Homo sapiens, UniProt P30291+Q96SW2).
T1 construct: C-terminal ePL-tagged (DiscoverX, Fremont, CA) full-length WEE1 expression construct; expressed in transfected cells; host or cells: LentiX-HEK293T (Invitrogen), lentiviral transduction; co-expressing GSPT1-GN (G576N, lacking the first 158 amino acids)
Briefly: WEE1-ePL degradation assay (LentiX-WEE1-ePL-GSPT1-ND cells, InCELL Hunter luminescence, 4 h). In kind it is cell-based. The conditions noted are these: 293T-LentiX WEE1-ePL cells; for DC50: read-out: 293T-LentiX WEE1-ePL Degradation 4 hr (EC50). An outline of the steps: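 LentiX-HEK293T cells stably expressing C-terminally ePL-tagged full-length WEE1 were treated with compounds in a 10-point, 3-fold dilution series starting at 1 uM or 10 uM for 4 h at 37 °C. Remaining WEE1-ePL was detected by InCELL Hunter luminescence, and EC50, Ymin and Ymax came from a four-parameter logistic fit against DMSO control.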

[1] abbreviates: lower limit of the fit (0 = luciferase inhibitor, Ymax = DMSO control).
Where [2] appears, read: lower limit of the fit (Ymin=0 luciferase inhibitor, Ymax DMSO control).

Turning to `O=C1CCC(N2Cc3cc(O[C@H]4CCN(Cc5ccc6nc(N7[C@@H]8CC[C@H]7COC8)ccc6c5)C4)ccc3C2=O)C(=O)N1` (stereo partly drawn) [3-(5-{[(3S)-1-({2-[(1R,5S)-3-oxa-8-azabicyclo[3.2.1]octan-8-yl]quinolin-6-yl}methyl)pyrrolidin-3-yl]oxy}-1-oxo-2,3-dihydro-1H-isoindol-2-yl)piperidine-2,6-dione], the EC50 with MKN45 cells (growth inhibition) is 9.72 nM. The “MKN45 Cell Prolif. 120 hr (Ymin-Obs)” value in the assay with MKN45 cells amounted to 11.965. Further, at WEE1 (setting [1]), the “293T-LentiX WEE1-ePL Degradation 4 hr (Ymin)” value came out at 28. The DC50 at WEE1 came to 4.47 nM.
The like results for `O=C1CCC(N2Cc3cc(O[C@H]4CCN(Cc5ccc6nc(N7C[C@H]8C[C@@H](C7)O8)ncc6c5)C4)ccc3C2=O)C(=O)N1` (stereo partly drawn) [3-(5-{[(3S)-1-({2-[(1R,5S)-6-oxa-3-azabicyclo[3.1.1]heptan-3-yl]quinazolin-6-yl}methyl)pyrrolidin-3-yl]oxy}-1-oxo-2,3-dihydro-1H-isoindol-2-yl)piperidine-2,6-dione] were, in that order, 16.4 nM, 13.42, 39 and 20.2 nM.
Take `O=C1CCC(N2Cc3cc(O[C@H]4CCN(Cc5ccc6nc(N7C[C@H]8C[C@@H](C7)O8)ccc6c5)C4)ccc3C2=O)C(=O)N1` (stereo partly drawn) [3-(5-{[(3S)-1-({2-[(1R,5S)-6-oxa-3-azabicyclo[3.1.1]heptan-3-yl]quinolin-6-yl}methyl)pyrrolidin-3-yl]oxy}-1-oxo-2,3-dihydro-1H-isoindol-2-yl)piperidine-2,6-dione]: the EC50 in the assay on MKN45 cells (growth inhibition) is 3.19 nM. In addition, the “MKN45 Cell Prolif. 120 hr (Ymin-Obs)” value in the assay on MKN45 cells was determined as 9.79. Also, the “293T-LentiX WEE1-ePL Degradation 4 hr (Ymin)” value at WEE1 (setting [1]) came out at 38. Further, the DC50 at WEE1 came to 1.98 nM.
The like results for `O=C1CCC(N2Cc3cc(O[C@H]4CCN(Cc5ccc6nc(N7C[C@H]8CC[C@@H](C7)O8)ncc6c5)C4)ccc3C2=O)C(=O)N1` (stereo partly drawn) [3-(5-{[(3S)-1-({2-[(1R,5S)-8-oxa-3-azabicyclo[3.2.1]octan-3-yl]quinazolin-6-yl}methyl)pyrrolidin-3-yl]oxy}-1-oxo-2,3-dihydro-1H-isoindol-2-yl)piperidine-2,6-dione] were, in that order, 15.6 nM, 11.04, 35 and 45.9 nM.
The like results for `O=C1CCC(N2Cc3cc(O[C@H]4CCN(Cc5ccc6nc(N7C[C@H]8CC[C@@H](C7)O8)ccc6c5)C4)ccc3C2=O)C(=O)N1` (stereo partly drawn) [3-(5-{[(3S)-1-({2-[(1R,5S)-8-oxa-3-azabicyclo[3.2.1]octan-3-yl]quinolin-6-yl}methyl)pyrrolidin-3-yl]oxy}-1-oxo-2,3-dihydro-1H-isoindol-2-yl)piperidine-2,6-dione] were, in that order, 6.42 nM, 11.085, 37 and 6.5 nM.
Consider `COC[C@@H]1CCC[C@@H]1c1ccc2cc(CN3CC[C@H](Oc4ccc5c(c4)CN(C4CCC(=O)NC4=O)C5=O)C3)ccc2n1` (stereo partly drawn) [3-(5-{[(3S)-1-({2-[(1S,2R)-2-(methoxymethyl)cyclopentyl]quinolin-6-yl}methyl)pyrrolidin-3-yl]oxy}-1-oxo-2,3-dihydro-1H-isoindol-2-yl)piperidine-2,6-dione], for which, in the assay on MKN45 cells, the EC50 amounted to 5.76 nM and the “MKN45 Cell Prolif. 120 hr (Ymin-Obs)” value is on record as 11.34. Moreover, the “293T-LentiX WEE1-ePL Degradation 4 hr (Ymin)” value at WEE1 (setting [2]) was 26.36. The DC50 at WEE1 was 0.334 nM.
The like results for `CO[C@@H]1CCCC[C@H]1c1ccc2cc(CN3CC[C@H](Oc4ccc5c(c4)CN(C4CCC(=O)NC4=O)C5=O)C3)ccc2n1` (stereo partly drawn) [3-(5-{[(3S)-1-({2-[(1S,2R)-2-methoxycyclohexyl]quinolin-6-yl}methyl)pyrrolidin-3-yl]oxy}-1-oxo-2,3-dihydro-1H-isoindol-2-yl)piperidine-2,6-dione] were, in that order, 428 nM, 51.58, 32.43 and 21.5 nM.
The like results for `CO[C@@H]1CCC[C@H]1c1ccc2cc(CN3CC[C@H](Oc4ccc5c(c4)CN(C4CCC(=O)NC4=O)C5=O)C3)ccc2n1` (stereo partly drawn) [3-(5-{[(3S)-1-({2-[(1S,2R)-2-methoxycyclopentyl]quinolin-6-yl}methyl)pyrrolidin-3-yl]oxy}-1-oxo-2,3-dihydro-1H-isoindol-2-yl)piperidine-2,6-dione] were, in that order, 12 nM, 13.63, 37.17 and 3.01 nM.
The like results for `COC[C@H]1CCCC[C@@H]1c1ccc2cc(CN3CC[C@H](Oc4ccc5c(c4)CN(C4CCC(=O)NC4=O)C5=O)C3)ccc2n1` (stereo partly drawn) [3-(5-{[(3S)-1-({2-[(1S,2S)-2-(methoxymethyl)cyclohexyl]quinolin-6-yl}methyl)pyrrolidin-3-yl]oxy}-1-oxo-2,3-dihydro-1H-isoindol-2-yl)piperidine-2,6-dione] were, in that order, 1.43 nM, 11.37, 21.7 and 3.03 nM.
As to `COC[C@H]1CCC[C@@H]1c1ccc2cc(CN3CC[C@H](Oc4ccc5c(c4)CN(C4CCC(=O)NC4=O)C5=O)C3)ccc2n1` (stereo partly drawn) [3-(5-{[(3S)-1-({2-[(1S,2S)-2-(methoxymethyl)cyclopentyl]quinolin-6-yl}methyl)pyrrolidin-3-yl]oxy}-1-oxo-2,3-dihydro-1H-isoindol-2-yl)piperidine-2,6-dione], in the assay with MKN45 cells, the EC50 came out at 11.9 nM and the “MKN45 Cell Prolif. 120 hr (Ymin-Obs)” value was found to be 11.37. For the same molecule, the “293T-LentiX WEE1-ePL Degradation 4 hr (Ymin)” value at WEE1 (setting [2]) amounted to 27.68. For the same molecule, the DC50 at WEE1 came out at 5.38 nM.
The like results for `COC[C@@H]1CCC[C@H](c2ccc3cc(CN4CC[C@H](Oc5ccc6c(c5)CN(C5CCC(=O)NC5=O)C6=O)C4)ccc3n2)C1` (stereo partly drawn) [3-(5-{[(3S)-1-({2-[(1S,3R)-3-(methoxymethyl)cyclohexyl]quinolin-6-yl}methyl)pyrrolidin-3-yl]oxy}-1-oxo-2,3-dihydro-1H-isoindol-2-yl)piperidine-2,6-dione] were, in that order, 1.73 nM, 10.23, 27.12 and 1.63 nM.
The like results for `COC[C@@H]1CC[C@H](c2ccc3cc(CN4CC[C@H](Oc5ccc6c(c5)CN(C5CCC(=O)NC5=O)C6=O)C4)ccc3n2)C1` (stereo partly drawn) [3-(5-{[(3S)-1-({2-[(1S,3R)-3-(methoxymethyl)cyclopentyl]quinolin-6-yl}methyl)pyrrolidin-3-yl]oxy}-1-oxo-2,3-dihydro-1H-isoindol-2-yl)piperidine-2,6-dione] were, in that order, 2.56 nM, 8.786, 32.37 and 5.9 nM.
On to `O=C1CCC(N2Cc3cc(O[C@H]4CCN(Cc5ccc6nc([C@H]7CCC[C@@H](O)C7)ccc6c5)C4)ccc3C2=O)C(=O)N1` (stereo partly drawn) [3-(5-{[(3S)-1-({2-[(1S,3R)-3-hydroxycyclohexyl]quinolin-6-yl}methyl)pyrrolidin-3-yl]oxy}-1-oxo-2,3-dihydro-1H-isoindol-2-yl)piperidine-2,6-dione], for which, in the assay on MKN45 cells (growth inhibition), the EC50 was determined as 11.1 nM. In addition, in the assay on MKN45 cells, the “MKN45 Cell Prolif. 120 hr (Ymin-Obs)” value was found to be 7.93. Also, the “293T-LentiX WEE1-ePL Degradation 4 hr (Ymin)” value at WEE1 (setting [1]) turned out to be 32. For the same molecule, at WEE1, the DC50 is 9.66 nM.
The like results for `O=C1CCC(N2Cc3cc(O[C@H]4CCN(Cc5ccc6nc([C@H]7CC[C@@H](O)C7)ccc6c5)C4)ccc3C2=O)C(=O)N1` (stereo partly drawn) [3-(5-{[(3S)-1-({2-[(1S,3R)-3-hydroxycyclopentyl]quinolin-6-yl}methyl)pyrrolidin-3-yl]oxy}-1-oxo-2,3-dihydro-1H-isoindol-2-yl)piperidine-2,6-dione] were, in that order, 2.66 nM, 7.68, 31 and 2.99 nM.
With `CO[C@@H]1CCC[C@H](c2ccc3cc(CN4CC[C@H](Oc5ccc6c(c5)CN(C5CCC(=O)NC5=O)C6=O)C4)ccc3n2)C1` (stereo partly drawn) [3-(5-{[(3S)-1-({2-[(1S,3R)-3-methoxycyclohexyl]quinolin-6-yl}methyl)pyrrolidin-3-yl]oxy}-1-oxo-2,3-dihydro-1H-isoindol-2-yl)piperidine-2,6-dione], in the assay with MKN45 cells (growth inhibition), the EC50 amounted to 16.5 nM. Further, the “MKN45 Cell Prolif. 120 hr (Ymin-Obs)” value in the assay with MKN45 cells was found to be 9.143. The “293T-LentiX WEE1-ePL Degradation 4 hr (Ymin)” value on WEE1 (setting [1]) worked out at 32. Further, the DC50 on WEE1 was found to be 28.7 nM.
On to `CO[C@@H]1CC[C@H](c2ccc3cc(CN4CC[C@H](Oc5ccc6c(c5)CN(C5CCC(=O)NC5=O)C6=O)C4)ccc3n2)C1` (stereo partly drawn) [3-(5-{[(3S)-1-({2-[(1S,3R)-3-methoxycyclopentyl]quinolin-6-yl}methyl)pyrrolidin-3-yl]oxy}-1-oxo-2,3-dihydro-1H-isoindol-2-yl)piperidine-2,6-dione], for which the EC50 with MKN45 cells (growth inhibition) came to 1.61 nM. Moreover, the “MKN45 Cell Prolif. 120 hr (Ymin-Obs)” value with MKN45 cells stood at 8.776. Moreover, on WEE1 (setting [1]), the “293T-LentiX WEE1-ePL Degradation 4 hr (Ymin)” value was found to be 29.67. For the same molecule, on WEE1, the DC50 is 2.07 nM.
